tested on: not listed separately; assay: Rat liver microsome stability (RLM) experiment; type: in vitro ADME; conditions: pH 7.4; rat liver microsomes 0.5 mg protein/mL, NADPH, 37° C., 0-45 min
Experimental: Rat liver microsomes (Xenotech, item No. R1000, lot No. 1310030), 100 mM potassium phosphate buffer solution (pH 7.4), 10 mM magnesium chloride.
Compound preparation: 5 μL of compound DMSO mother liquor (10 mM) was added to 495 μL of methanol to obtain an intermediate solution with a compound concentration of 100 μM. Then 50 μL of the intermediate solution was taken and dissolved in 450 μL of potassium phosphate buffer solution to obtain a test solution with a final concentration of 10 μM.
NADPH regeneration system (concentration of isocitrate dehydrogenase 1 unit/mL).
Liver microsomes (final concentration 0.5 mg protein/mL).
Reaction termination solution: cold acetonitrile containing 100 ng/mL Tolbutamide and 100 ng/mL Labetalol as an internal standard.
• (1) Preparation of Buffer Solution: • Buffer solution A: 1.0 L of 0.1 M potassium phosphate buffer solution containing 1.0 mM EDTA • Buffer solution B: 1.0 L of 0.1 M dipotassium phosphate buffer solution containing 1.0 mM EDTA • Buffer solution C: 0.1 M potassium phosphate buffer, 1.0 mM EDTA, pH 7.4, titrated with 700 mL of buffer solution B and buffer solution A, monitored by pH meter. • (2) Preparation of Reference Substance (Ketanserin) and Concentration of Administration Solution of the Test Substance
5000 administration solution: […] 10 mM DMSO reference substance stock solution and test substance stock solution were added to 190 μL of ACN, respectively. 1.5 μM administration solution (containing 0.75 mg/mL liver microsomes): […] administration solution and 18.75 μL of 20 mg/mL liver microsomes were added to 479.75 μL of buffer C on a wet ice. • (3) NADPH was added to buffer solution C to obtain a NADPH stock solution (6 mM). • (4) 30 μL of 1.5 μM administration solution (containing 0.75 mg/mL of liver microsomes) was taken on the wet ice and added to the wells of the test plate at different time points (0-, 5-, 15-, 30-, 45-min), respectively. • (5) Firstly, 135 μL of ACN containing IS was added to the wells of a 0 min test plate, and then 15 µL of the NADPH stock solution (6 mM) was added. • (6) The test plate at other time points and the NADPH stock solution were pre-heated in a 37° C. water bath for 5 minutes. • (7) 15 μL of the NADPH stock solution (6 mM) was taken and added to a pre-incubated test plate, and the reaction was started and timed. • (8) At 5 min, 15 min, 30 min and 45 min, 135 µL of CAN containing IS was added to the corresponding test plate respectively, and the test was completed. • (9) Test plates were shaken with a shaker (IKA, MTS 2/4) for 10 min (600 rpm/min) and then centrifuged for 15 min (Thermo Multifuge×3R, 5594 g). • (10) 50 μL of supernatant from each well was added to a 96-well sample plate containing 50 μL of ultrapure water (Millipore, ZMQS50F01), and the samples were analyzed by LC/MS.

Row | microsomal CLint [µL/min/mg] | Compound
1 | 5 | COc1cc2nnc(-c3cc(C)on3)n2nc1OCc1ccc(OC2COC2)nn1 [Embodiment 153]
2 | 22 | COc1cc2nnc(-c3cc(C)on3)n2nc1OCc1ccc2c(n1)CCN(C1CCOCC1)C2 [Embodiment 186]
3 | 6 | COc1cc2nnc(-c3cc(C)on3)n2nc1OCc1ccc(C2(F)CN(C3COC3)C2)cn1 [Embodiment 128]
4 | 0.3 | COc1cc2nnc(-c3cc(C)on3)n2nc1OCc1ccccn1 [Embodiment 33]
5 | 23 | COc1cc2nnc(-c3cc(C)on3)n2nc1OCc1ccc(OC2CCOCC2)nn1 [Embodiment 152]
6 | 14 | COCCCOc1ccc(COc2nn3c(-c4noc(C)n4)nnc3cc2OC)nn1 [Embodiment 129]
7 | 5 | COc1cc2nnc(-c3cc(C)on3)n2nc1OCc1ccc2nc(C#N)cn2n1 [Embodiment 211]
8 | 1 | COc1cc2nnc(-c3cc(C)on3)n2nc1OCc1ccc(OC2CCOC2)nn1 (stereo not shown) [Embodiment 154]
9 | 1 | COCc1ccc(COc2nn3c(-c4cc(C)on4)nnc3cc2OC)nn1 [Embodiment 151]
10 | 28.2 | Cc1cc(-c2nnc3c4ccccc4c(OCc4ccccn4)nn23)no1 [α51A-II, reference compound]
11 | 5 | COc1cc2nnc(-c3cc(C)on3)n2nc1OCc1ccc2c(n1)CCN(C1CCOC1)C2 (stereo not shown) [Embodiment 183]
12 | 6 | COc1cc2nnc(-c3cc(C)on3)n2nc1OCc1ccc2c(n1)CN(C)C2 [Embodiment 160]
13 | 33.6 | Cc1cc(-c2nnc3cc(C(C)(C)C)c(OCc4ccccn4)nn23)no1 [drawing 926, reference compound]
14 | 143 | CCNC(=O)c1ccc(COc2nn3c(-c4cc(C)on4)nnc3cc2C(C)(C)C)nc1 [Compound 42 in CN107344936A, reference compound]
15 | 11.4 | CCNC(=O)c1ccc(COc2nn3c(-c4cc(C)on4)nnc3cc2OC)nc1 [Embodiment 35]
16 | 15 | COc1cc2nnc(-c3cc(C)on3)n2nc1OCc1ccc2c(n1)CCN(Cc1cc(C)on1)C2 [Embodiment 187]
17 | 10 | COc1cc2nnc(-c3cc(C)on3)n2nc1OCc1ccc2c(n1)CN(C1CCOCC1)C2 [Embodiment 253]
18 | 9 | COc1cc2nnc(-c3cc(C)on3)n2nc1OCc1ccc2c(n1)CCN(C(CO)CO)C2 [Embodiment 185]
19 | 10 | COCc1cn2nc(COc3nn4c(-c5cc(C)on5)nnc4cc3OC)ccc2n1 [Embodiment 213]

same assay, conditions: rat liver microsomes 0.5 mg protein/mL, NADPH, 37° C., 0-45 min

Row | RLM [µL/min/mg] | Compound
20 | 0 | COc1cc2nnc(-c3cc(C)on3)n2nc1OCc1ccc2c(n1)CCN(C1COC1)C2 [Embodiment 84]
21 | 0 | COCCOCc1ccc(COc2nn3c(-c4cc(C)on4)nnc3cc2OC)nn1 [Embodiment 166]

tested on: not listed separately; assay: Pharmacokinetic experiment on rats: maximum plasma drug concentration (Cmax); type: in vivo; conditions: rat, male SD rats, po, 10 mg/kg, 5% CMC-Na aqueous solution
Experimental: In the pharmacokinetic experiment on rats, the maximum plasma drug concentration (Cmax) was used to evaluate the absorption of the compounds in rats. All rats fasted overnight before administration; the test compounds were dissolved and administered orally (po) to male SD rats, with 3 rats in each group. After administration of the test compounds, blood was collected by jugular vein puncture at […] with about 0.25 mL per sample. The plasma drug concentration was determined by LC-MS/MS method, and the pharmacokinetic parameters were calculated by Phoenix WinNonlin7.0. The dosage was 10 mg/kg, and the vehicle was 5% CMC-Na aqueous solution.

Row | Cmax [ng/mL] | Compound
22 | 216 | Cc1cc(-c2nnc3cc(C(C)(C)C)c(OCc4ccccn4)nn23)no1 [drawing 930]
23 | 1780 | COc1cc2nnc(-c3cc(C)on3)n2nc1OCc1ccccn1 [Embodiment 33]
24 | 25.7 | Cc1cc(-c2nnc3c4ccccc4c(OCc4ccccn4)nn23)no1 [α51A-II, reference compound]

tested on: not listed separately; assay: Pharmacokinetic experiment on rats: brain entry ratio (brain tissue/plasma concentration ratio); type: in vivo; conditions: male SD rats, po, 10 mg/kg, 0.5 hours
Experimental: The drug concentration ratio of plasma and brain tissue in the pharmacokinetic experiment on rats was used to evaluate the entry of compounds into brain. All rats fasted overnight before administration; the test compounds were dissolved and administered orally (po) to male SD rats, with 3 rats in each group. After administration of the test compounds, blood was collected by jugular vein puncture at 0.5 hours with about 0.25 mL per sample. The whole brain was taken at the same time. The plasma and brain tissue drug concentration were determined by LC-MS/MS method, and the pharmacokinetic parameters were calculated by Phoenix WinNonlin7.0. The dosage was 10 mg/kg, and the vehicle was 5% CMC-Na aqueous solution.

Row | Brain entry ratio [%] | Compound
25 | 0 | COc1cc2nnc(-c3cc(C)on3)n2nc1OCc1ccc2c(n1)CCN(C(CO)CO)C2 [Embodiment 185]

tested on: not listed separately; assay: Water solubility observed during work-up; type: physicochemical; conditions: observation at extraction, pH=7
Experimental: Methyl 6-[7-methoxy-3-(5-methyl-isoxazol-3-yl)-[1,2,4]triazolo[4,3-b]pyridazin-6-yloxymethyl]-nicotinate (300 mg, 0.75 mmol), 1 M lithium hydroxide (1.5 mL, 1.5 mmol) were sequentially added to 10 mL of ethanol, and the mixture was stirred at room temperature for 1 hour. The mixture was added with 0.5 M hydrochloric acid to neutralize to pH=7, diluted with water, extracted with ethyl acetate. […] LC-MS: m/z [M+H]^+=383.

Row | water solubility | Compound
26 | good water solubility | COc1cc2nnc(-c3cc(C)on3)n2nc1OCc1ccc(C(=O)O)cn1 [Embodiment 63]

tested on: α5-GABAA receptor; assay: not given; design: suppression of the current induced by GABA: dose or concentration left out as unconfirmed; conditions: GABA concentration increased further; cited from earlier work

Row | Compound | inhibitory effect on the current induced by GABA
27 | CCOC(=O)c1ncn2c1[C@@H]1CCCN1C(=O)c1cc(OC)ccc1-2 [L-655,708] | no inhibitory effect

same assay, conditions: highest concentration of L-655,708; cited from earlier work

Row | Compound | suppression of the current induced by GABA [%]
28 | CCOC(=O)c1ncn2c1[C@@H]1CCCN1C(=O)c1cc(OC)ccc1-2 [L-655,708] | 15

same assay, conditions: low concentrations of GABA (5, 50 and 500 nM); cited from earlier work

Row | Compound | inhibition of the current induced by GABA
29 | CCOC(=O)c1ncn2c1[C@@H]1CCCN1C(=O)c1cc(OC)ccc1-2 [L-655,708] | dose-dependently inhibited

tested on: α5-GABAA receptor; assay: not given; conditions: animal models; cited from earlier work

Row | Compound | therapeutic effects on cognition related diseases
30 | Cc1cc(-c2nnc3c4ccccc4c(OCc4cn(C)nn4)nn23)no1 [α5IA] | good therapeutic effects
31 | Cc1cc(-c2nncc3c(C(C)(C)C)c(OCc4ncnn4C)nn23)no1 [MRK-016] | good therapeutic effects
